The results in this text go back to paper PMC8837635, “Structural and functional analyses explain Pea KAI2 receptor diversity and reveal stereoselective catalysis during signal perception” (Communications Biology, 2022).

One assay has as its target T1, PsKAI2A (Lathyrus oleraceus, UniProt A0A9D4YJ13).
T1 construct: gene KIW84_024963; PsKAI2A.2 (272 aa)
T1 sequence (A0A9D4YJ13 1-264 limits assumed): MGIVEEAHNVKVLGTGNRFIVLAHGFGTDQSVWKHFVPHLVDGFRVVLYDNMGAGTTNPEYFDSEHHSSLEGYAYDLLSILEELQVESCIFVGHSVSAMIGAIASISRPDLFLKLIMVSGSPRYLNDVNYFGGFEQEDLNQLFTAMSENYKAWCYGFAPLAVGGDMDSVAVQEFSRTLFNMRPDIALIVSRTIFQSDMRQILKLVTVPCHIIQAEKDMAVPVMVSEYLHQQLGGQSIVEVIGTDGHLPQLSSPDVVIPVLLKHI
Put plainly: intrinsic tryptophan fluorescence Kd; hydrolysis by UPLC; MS covalent adduct. It is filed as binding.

Another assay deals with T2, AtD14 (Arabidopsis thaliana, UniProt Q9SQR3).
T2 construct: gene D14
T2 sequence (Q9SQR3 1-267): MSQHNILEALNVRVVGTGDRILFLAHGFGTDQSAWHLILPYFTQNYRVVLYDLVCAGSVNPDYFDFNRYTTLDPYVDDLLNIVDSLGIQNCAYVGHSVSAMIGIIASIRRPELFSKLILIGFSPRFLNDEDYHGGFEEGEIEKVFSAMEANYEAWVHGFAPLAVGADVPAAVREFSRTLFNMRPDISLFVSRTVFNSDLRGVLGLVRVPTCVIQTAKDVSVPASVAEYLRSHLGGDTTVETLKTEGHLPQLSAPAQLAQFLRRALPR
Put plainly: hydrolysis by purified protein, UPLC-UV. It is filed as biochemical.

The target of another assay is T3, RMS3 (Lathyrus oleraceus, UniProt A0A109QYD3).
T3 sequence (A0A109QYD3 1-267): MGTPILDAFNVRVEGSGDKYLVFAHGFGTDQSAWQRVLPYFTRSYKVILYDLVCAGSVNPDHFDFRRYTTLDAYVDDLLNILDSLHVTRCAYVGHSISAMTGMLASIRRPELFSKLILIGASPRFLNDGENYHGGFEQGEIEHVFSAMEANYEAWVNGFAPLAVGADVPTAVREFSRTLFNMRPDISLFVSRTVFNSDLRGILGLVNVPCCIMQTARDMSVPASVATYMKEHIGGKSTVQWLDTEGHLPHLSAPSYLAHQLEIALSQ
Put plainly: hydrolysis by purified protein, UPLC-UV. It is filed as biochemical.

Assay [1] has as its target T4, PsKAI2B (Lathyrus oleraceus, UniProt A0A8X6EGX8).
T4 sequence (A0A8X6EGX8 1-270): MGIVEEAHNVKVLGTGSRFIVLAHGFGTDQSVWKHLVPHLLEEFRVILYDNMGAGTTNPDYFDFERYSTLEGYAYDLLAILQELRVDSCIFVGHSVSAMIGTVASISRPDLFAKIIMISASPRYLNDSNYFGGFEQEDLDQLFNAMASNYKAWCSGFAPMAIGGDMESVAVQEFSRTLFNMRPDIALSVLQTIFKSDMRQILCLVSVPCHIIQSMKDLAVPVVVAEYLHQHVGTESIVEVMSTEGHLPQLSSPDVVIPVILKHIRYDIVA
As to the kind of experiment: intrinsic tryptophan fluorescence Kd; DSF shift; hydrolysis by UPLC; MS covalent adduct. Type of assay: binding.

Assay [2] concerns the target T4, PsKAI2B. As to the kind of experiment: co-crystal structure with (–)-GR24 at […] Å; hydrolysis product trapped in catalytic site; MS +[…] Da adduct on H246. Type of assay: binding.

Take `CC1=C[C@@H](O/C=C2/C(=O)O[C@H]3c4ccccc4C[C@@H]23)OC1=O` [(–)-GR24]: the Kd – broadly, the equilibrium constant for the complex coming apart – at PsKAI2A stood at 115 ± 9.87 µM; at PsKAI2B [1] it was 89.4 ± 12.1 µM. Also, the “hydrolysis by purified protein, UPLC-UV” value on AtD14 was “AtD14 and PsRMS3 (Pisum D14) similarly bind and hydrolyze both the isolated (–)- and (+)-GR24 stereoisomers”; on RMS3 it was “AtD14 and PsRMS3 (Pisum D14) similarly bind and hydrolyze both the isolated (–)- and (+)-GR24 stereoisomers”.

On to `CC1=CC(O)OC1=O` [D-OH, 5-hydroxy-3-methylbutenolide], for which the “co-crystal structure with (-)-GR24 at 2.0 Å; hydrolysis product trapped in catal” value on PsKAI2B [2] is 5-hydroxy-3-methylbutenolide (D-OH ring), resulting from the (–)-GR24 cleavage, is trapped in the catalytic site.
